PMC6362850 (European journal of medicinal chemistry, 2018)

Tests used:
HBV Cp [1] = target: T1, HBV Cp (Hepatitis B virus genotype D subtype ayw, UniProt P03146, R150C); type: binding
HBV Cp [2] = target: T1, HBV Cp; conditions: HTS of commercial libraries; cited from earlier work
[3] = Aqueous solubility assay in DPBS; type: physicochemical; conditions: thermodynamic, 72 h, ambient temperature
HBV capsid = HBV capsid (Hepatitis B virus genotype D subtype ayw, UniProt P03146, R150C); assay: Transmission electron microscopy of HBV capsid assembly; type: biochemical; conditions: compared to DMSO control

Molecule	Cp binding in TSA, in words (HBV Cp [1])	also measured
5-Amino-4-carbamothioyl-N-(3,4-difluorophenyl)-3-methylthiophene-2-carboxamide [Compound 13]	Strong binding	
Cc1c(C(=O)Nc2ccccc2)sc(N)c1C(N)=O [Compound 11, 5-Amino-3-methyl-N2-phenylthiophene-2,4-dicarboxamide]		Binding to HBV Cp in TSA (HTS), in words (HBV Cp [2]): strong binder
Cc1c(C(=O)Nc2ccccc2)sc(NC(=O)N2CCOCC2)c1C(N)=O [Compound 12a, 3-Methyl-5-(morpholine-4-carboxamido)-N2-phenylthiophene-2,4-dicarboxamide]	completely inactive	
Cc1c(C(=O)Nc2ccccc2)sc(-n2cnnn2)c1C(N)=O [Compound 12k]	completely inactive	
Cc1c(C(=O)Nc2ccccc2)sc(N)c1C#N [Compound 14a]	loss of binding affinity	
Cc1c(C(=O)Nc2cc(F)c(F)c(Cl)c2)sc(N)c1C#N [Compound 14d]	loss of binding affinity	
Cc1c(C(=O)Nc2ccc(F)c(F)c2)sc(N)c1C(=O)NC1CCCC1 [Compound 16m]	retained strong Cp binding	
Cc1c(C(=O)NCc2ccccc2)sc(N)c1C(N)=O [Compound 19a]	strong Cp binding was preserved	
COc1ccc(NC(=O)c2sc(N)c(C(N)=O)c2C)cc1 [Compound 19b]	Cp binding was preserved	
Cc1c(C(=O)Nc2ccc(F)cc2)sc(N)c1C(N)=O [Compound 19e]	strong Cp binding	
Cc1c(C(=O)Nc2ccc(F)c(F)c2)sc(N)c1C(N)=O [Compound 19g]		Aqueous Solubility [3]: poor aqueous solubility
Cc1cc(NC(=O)c2sc(N)c(C(N)=O)c2C)ccc1F [Compound 19h]	only the denaturation peak corresponding to fully assemble capsid was observed	Effect on HBV capsid assembly (TEM) (HBV capsid): promoted the aggregation of HBV capsid
Cc1c(C(=O)Nc2ccc(F)c(C#N)c2)sc(N)c1C(N)=O [Compound 19l]		Aqueous Solubility [3]: poor aqueous solubility
Cc1c(C(=O)Nc2ccc(F)c(C(F)F)c2)sc(N)c1C(N)=O [Compound 19o]		Aqueous Solubility [3]: poor aqueous solubility
